Results taken from paper PMC6669322, “Small Molecule Binding to Alzheimer Risk Factor CD33 Promotes Aβ Phagocytosis” (iScience, 2019).
pKd: −log10 of the molar value.

Key:
CD33^C36S = biological target: T1, CD33^C36S (Homo sapiens, UniProt P20138, C36S); test: surface plasmon resonance (SPR), CD33^C36S V-set domain; assay type: binding; settings: P22 as analyte, captured CD33^C36S; 1:1 steady state model
T1 construct: DNA encoding D18 to H143 of human CD33; octa-histidine tag with TEV protease cleavage site (N); made in house
Method: We next performed surface plasmon resonance (SPR) measurements on P22 binding to CD33 wild-type, and selected mutants, to obtain detailed kinetic data (see Transparent Methods). The CD33 V-set domain has a free cysteine residue (C36), which caused anomalous results in some of our SPR experiments due to disulfide-linked oligomers forming in solution.
Figure 3 P22 Binding to CD33 Wild-Type and Mutants (A) An example of affinity analysis for 1–243 μM (3-fold dilutions) of P22 binding to immobilized CD33^C36S. Data obtained in duplicate using single-cycle analysis and fit to a steady-state binding model to determine the equilibrium binding constant. (B) An example of affinity analysis of P22 binding to immobilized CD33 wild-type (WT) as per example in (A). (C) Sensorgram data for 0.01–9 μM (3-fold dilutions) of CD33^C36S binding to immobilized P22. Data obtained in triplicate using single concentration cycles and fit to a 1:1 binding model for kinetic analysis. (D) Sensorgram data for 0.03–9 μM (3-fold dilutions) CD33 WT binding to immobilized P22. Data obtained in triplicate using single concentration cycles and fit to a bivalent analyte model for kinetic analysis. Measurements in triplicate showing mean ± SD. […] Data presented are representative of three independent experiments performed in quadruplicate for each compound. […]

human CD33 = test system: human CD33; set-up: method as in Rillahan et al., 2014; settings: in words; ref Rillahan et al., 2014; cited from earlier work

T1 sequence (P20138 18-143 C36S): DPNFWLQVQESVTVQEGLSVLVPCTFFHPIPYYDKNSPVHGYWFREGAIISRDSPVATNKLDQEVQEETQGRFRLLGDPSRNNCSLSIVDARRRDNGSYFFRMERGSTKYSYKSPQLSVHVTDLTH

pKd (CD33^C36S): 4.02
SMILES: Cc1cc(C(=O)NC[C@@H](O)[C@@H](O)[C@@H]2O[C@@](OC[C@H]3O[C@@H](O[C@H]4[C@H](O)[C@@H](O)[C@H](OCCN)O[C@@H]4CO)[C@H](O)[C@@H](O)[C@H]3O)(C(=O)O)C[C@H](O)[C@H]2NC(=O)Cn2cc(C3CCCCC3)nn2)cc(C)c1O [P22, β-D-Glucopyranoside, 2-aminoethyl O-[N-[2-(4-cyclohexyl-1H-1,2,3-triazol-1-yl)acetyl]-9-deoxy-9-[(4-hydroxy-3,5-dimethylbenzoyl)amino]-α-neuraminosyl] (2→6)-O-β-D-galactopyranosyl-(1→4)-]
specificity for human CD33 over other human Siglecs (human CD33): high specificity
